One assay concerns the target T1, TRPC1/5 heteromers (Homo sapiens, UniProt P48995+Q9UL62).
T1 construct: wild type plasmids full-length hTRPC1 (WT) and full-length hTRPC5 (WT); expressed in transfected cells; host or cells: HEK293T
As to the kind of experiment: Whole-cell patch-clamp, inhibition of EA-activated TRPC1/5 heteromers. In kind it is cell-based. The source says: (§1) The full-length hTRPC5 or truncated mTRPC5, and the full-length hTRPC1 constructs was respectively co-transfected in a plasmid ration 1:3 (w/w) into HEK293T cells (from the ATCC). As previously described, a mCherry was inserted into TRPC5 constructs and a GFP was inserted at the C terminus of TRPC1. Therefore, Cells with red and green fluorescence were selected for whole-cell patch recordings (HEKA EPC10 amplifier, […] software (https://www.heka.com/downloads/downloads_main.html#down_patchmaster)). A 1-s ramp protocol from −100 to +100 mV was applied at a frequency of 0.2 Hz. Signals were sampled at 50 kHz and filtered at 2.9 kHz. The pipette solution contained 130 mM CsCl, 1 mM MgCl2, 5.7 mM CaCl2, 10 mM EGTA, and 10 mM Hepes (calculated free Ca^2+, 200 nM), and the pH was titrated to 7.2 using CsOH[40]. The standard bath solution contained 140 mM NaCl, 5 mM KCl, 1 mM MgCl2, 2 mM CaCl2, 10 mM Hepes, and 10 mM D-glucose, and the pH was adjusted to 7.4 with NaOH (1 M). The recording chamber (150 μL) was perfused at a rate of ~2 mL/min. All recordings were performed at room temperature.
In general terms: The patch-clamp technique gives a direct electrical read-out from membranes.

A further assay has as its target T2, hTRPC5 (Homo sapiens, UniProt Q9UL62).
T2 construct: Full-length, non-tagged hTRPC1 and hTRPC5 constructs are used for calcium flux assays; expressed in transfected cells; host or cells: HEK293T
T2 sequence (Q9UL62 1-973): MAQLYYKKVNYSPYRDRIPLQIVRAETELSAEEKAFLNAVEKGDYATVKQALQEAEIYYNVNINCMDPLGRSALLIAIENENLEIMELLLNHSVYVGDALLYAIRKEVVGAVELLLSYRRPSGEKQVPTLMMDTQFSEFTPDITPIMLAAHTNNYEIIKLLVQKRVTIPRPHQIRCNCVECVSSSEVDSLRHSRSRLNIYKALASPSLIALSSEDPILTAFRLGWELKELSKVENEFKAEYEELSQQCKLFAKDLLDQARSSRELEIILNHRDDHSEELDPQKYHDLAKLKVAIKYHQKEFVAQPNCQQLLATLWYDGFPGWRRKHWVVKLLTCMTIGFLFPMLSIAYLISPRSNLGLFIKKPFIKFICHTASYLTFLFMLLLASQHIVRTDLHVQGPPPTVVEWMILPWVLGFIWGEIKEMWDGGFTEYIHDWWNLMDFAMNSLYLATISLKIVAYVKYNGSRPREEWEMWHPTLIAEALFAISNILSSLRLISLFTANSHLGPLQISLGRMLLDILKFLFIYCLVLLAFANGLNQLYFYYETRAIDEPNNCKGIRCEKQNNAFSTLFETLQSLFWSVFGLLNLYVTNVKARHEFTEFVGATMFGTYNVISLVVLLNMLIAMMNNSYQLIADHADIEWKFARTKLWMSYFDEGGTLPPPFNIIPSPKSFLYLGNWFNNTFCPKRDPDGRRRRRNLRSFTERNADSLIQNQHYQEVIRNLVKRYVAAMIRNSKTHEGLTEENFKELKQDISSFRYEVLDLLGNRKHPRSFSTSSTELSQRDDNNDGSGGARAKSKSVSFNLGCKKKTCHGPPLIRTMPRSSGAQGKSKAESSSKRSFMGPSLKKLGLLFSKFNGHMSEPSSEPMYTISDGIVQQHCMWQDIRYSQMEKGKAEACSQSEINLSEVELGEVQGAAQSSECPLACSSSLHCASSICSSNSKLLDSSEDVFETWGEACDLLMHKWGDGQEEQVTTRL
As to the kind of experiment: Calcium flux assay (Calcium 5 kit, EA 100 nM), hTRPC5 in HEK293T cells. Format: cell-based. To be noted: calcium flux screening, 10 μM. How it is done: Five minutes before measurement, molecules are added to each well at a final concentration of 10 µM under light-sensitive conditions.
(In general: Calcium assays in cells follow changes in intracellular calcium, usually with a dye or a luminescent sensor.)

For assay [1], the system named is TRPC1 or TRPC5 mutations within the TRPC1/5 heteromer. Description: Whole-cell patch-clamp, inhibition of TRPC1/5 heteromers carrying TRPC1 or TRPC5 mutations (e.g. TRPC1 F595A). In kind it is cell-based. To be noted: TRPC1 F595A/C5 vs WT TRPC1/5.
From the text: as §1, with “temperature. In this experiment, TRPC5 homomers or TRPC1/5 heteromers were activated using the TRPC1/4/5 agonist Englerin A (EA).” for “temperature.”
Error bars represent the standard error of the mean (SEM, n = 6 independent
Error bars represent the standard error of the
110 mean (SEM, n = 5 independent cells).

The subject of assay [2] is CUMS-induced depressive-like behaviors. Description: Forced swim test (FST) in CUMS model. In kind it is in vivo, mouse. To be noted: CUMS mice; 14 days once-daily oral; vs vehicle. How it is done:
The stressors included food and water deprivation, foot shock, wet bedding, cage tilting, restraint, shaking, and olfactory stimulation. These seven stressors were randomly applied each week to ensure unpredictability. The stress induction was maintained continuously for 28 days. Following model establishment, the tail suspension test (TST) was performed to confirm the successful induction of depressive-like behaviors. Mice that met the criteria were randomly assigned to experimental groups. Chronic Treatment: Mice were treated daily for 14 consecutive days. The SPT was conducted on day 11, and the forced swimming test (FST) was performed on day 14.

Where “and” joins values, the source holds several entries; their conditions need not be identical. Equal values may be shown once.

T1 sequence (P48995 whole entry, one chain of several): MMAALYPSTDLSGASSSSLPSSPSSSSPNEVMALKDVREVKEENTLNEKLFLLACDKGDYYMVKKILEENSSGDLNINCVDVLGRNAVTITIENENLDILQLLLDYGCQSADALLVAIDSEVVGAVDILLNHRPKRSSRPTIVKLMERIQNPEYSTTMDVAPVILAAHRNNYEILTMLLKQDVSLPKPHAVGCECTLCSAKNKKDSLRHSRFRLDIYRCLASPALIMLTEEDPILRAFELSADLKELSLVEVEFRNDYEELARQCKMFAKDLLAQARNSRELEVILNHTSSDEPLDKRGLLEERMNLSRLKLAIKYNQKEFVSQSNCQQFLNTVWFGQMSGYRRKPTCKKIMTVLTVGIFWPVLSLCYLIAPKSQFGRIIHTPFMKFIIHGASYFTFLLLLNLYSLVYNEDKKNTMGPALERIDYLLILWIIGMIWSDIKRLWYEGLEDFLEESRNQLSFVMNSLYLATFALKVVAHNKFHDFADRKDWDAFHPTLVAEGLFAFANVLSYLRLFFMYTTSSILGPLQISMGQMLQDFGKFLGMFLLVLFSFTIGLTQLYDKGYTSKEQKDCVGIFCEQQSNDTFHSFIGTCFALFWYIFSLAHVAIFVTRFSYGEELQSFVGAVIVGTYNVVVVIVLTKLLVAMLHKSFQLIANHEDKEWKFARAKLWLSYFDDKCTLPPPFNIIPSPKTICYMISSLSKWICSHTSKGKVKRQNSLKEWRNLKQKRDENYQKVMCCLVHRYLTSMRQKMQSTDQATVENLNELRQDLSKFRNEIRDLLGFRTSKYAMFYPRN

As for `CN(C)CCCCn1c(=O)c2c(nc(Oc3cccc(Cl)c3)n2Cc2ccc(Cl)cc2)n(C)c1=O` [H08], the “Hill coefficient, TRPC1/C5 heteromer” value at TRPC1/5 heteromers (combined fitting with additional 0.01 nM and 0.001 nM points (rebuttal)) is on record as “approximately 0.33”. The IC50 on TRPC1/5 heteromers (whole-cell patch-clamp, read-out: IC50, TRPC1/C5) is 0.239 nM and 0.2 nM. Besides, the “inhibitory activity toward TRPC5 homomers (in words)” value at hTRPC5 is recorded as “minimal effect”. In addition, the “increase in IC50 on alanine substitution of F595 in TRPC1” value in assay [1] is recorded as ~ 100 fold. Besides, the “immobility (FST), repeated dosing” value in assay [2] was “reduced immobility”.

Source of the values: article PMC13385394, “Cryo-EM Structure of the TRPC1/5 Heteromer Enables Design of Antidepressant and Anxiolytic Drug with Reduced Side Effects” (Nature Communications, 2026).
